Assay: DSC thermal decomposition
Assay type: physicochemical
Conditions: decomposition temperature by DSC
Text: The optical and thermal properties of the pyridinium imine based dye compounds were studied. The dyes show high absorption at the desired wavelengths. In addition, the shape of the absorption spectra, that still remains critical to the disc reflectivity and formation of clean mark edges, are composed of one major band, comprised in a range of from 350 to 500 nm, preferably of from 350 to 400 nm. […] Sharp threshold of thermal decomposition within the required temperature range characterizes the new pyridinium imine based dyes which are assumed to be desirable for the application in optical layers for optical data recording. As a conclusion, the pyridinium imine based dye compounds are within the specifications which are primarily required by the industry for the use of dyes in optical data recording, in particular in the next-generation optical data recording media in the blue laser range.

CC[n+]1ccccc1N=CC1C(=O)NC(=O)NC1=O [Example 1]
DSC (decomp.): 326 °C
